Experimental data: patent publication US7189742B2, “Piperidin-2,6-dione bisulphate salts and their use for the treatment of stress related affective disorders” (Prestwick Pharmaceuticals, Inc., priority 2001, dated 2007)
Structures can show the parent of a compound that is named as a salt. Where two headings read alike, the source gives them in different places.

Tests used:
[1] = system: Male Wistar rats; experiment: Chronic mild stress (CMS) model, consumption of 1% sucrose solution; format: in vivo, rat; settings: for consumption of sucrose solution one week after withdrawal from treatment: all drug-treated groups, control and stressed, stress continued; for consumption of sucrose solution in control animals / sucrose intake in stressed animals (treatment effect): 5 weeks
Experimental: (§1) Male Wistar rats were brought into the laboratory 2 months before the start of the experiment, at which time they weighed approx. 300 g. Except as described below, all animals were singly housed, with food and water freely available, and maintained on a 12-hour light/dark. The animals were first trained to consume a 1% sucrose solution. Training consisted of nine 1-hour baseline tests in which sucrose was presented in pre-weighed bottles, in the home cage, and, following 14 hours food and water deprivation; the sucrose intake was measured by weighing the pre-weighed bottles at the end of the test. Subsequently, sucrose consumption was monitored, under similar conditions, at weekly intervals throughout the whole experiment.
(§2) On the basis of their sucrose intakes in the final baseline test, the animals were divided into two matched groups. One group of animals was subjected to a chronic mild stress (“CMS”) procedure for a period of 9 consecutive weeks. Each week of stress regime consisted of: two periods of food or water deprivation, two periods of 45 degree cage tilt, two periods of intermittent illumination (lights on and off every 2 hours), two periods of soiled cage (250 ml water in sawdust bedding), two periods of paired housing, two periods of low intensity stroboscopic illumination, and two periods of no stress. All stressors were of 10–14 hours duration and were applied individually and continuously, day and night. Control animals were housed in a separate room and had no contact with the stressed animals. They were deprived of food and water for the 14 hours preceding each sucrose test, but otherwise food and water were freely available in the home cage. […] After five weeks, all treatments were terminated and after one week of withdrawal a final sucrose test was carried out. Stress was continued throughout the period of treatment and withdrawal.
Chronic mild stress causes a gradual decrease in the consumption of 1% sucrose solution. In the final baseline test, all animals drank approximately 12 g of sucrose solution. Following initial three weeks of stress, intakes remained at the same level in control animals but fell to 7.5 (±0.3) g in stressed animals. Such a difference between control and stressed animals treated with vehicle, persisted at similar level for the remainder of the experiment [Group effect: F(1,98)=67.256; P<0.001].

[2] = Body weights, behaviour and withdrawal signs in the CMS study; format: in vivo, rat; settings: for effect of chronic treatment on body weights: 5 weeks, imipramine 10 mg/kg i.p., AGN 2979 bisulphate 1, 4, 16 mg/kg p.o.; for signs of withdrawal after cessation of treatment: stressed or control animals, one week after cessation
Experimental: as §1, §2

[3] = Effect of AGN 2979 bisulphate on rat weight (0.36% in diet); format: in vivo, Male Spraque-Dawley rats; settings: after initial period of 3 or 4 days, about 230 mg/kg
Experimental: 4 Male Spraque-Dawley rats were fed with their standard laboratory diet to which had been added 0.36% AGN 2979 bisulphate for a period of 9 days and their weight monitored on a daily basis and compared with 2 control rats receiving the standard laboratory diet without the bisulphate. For a rat weighing 360 g and consuming 23 g of the diet, the amount of AGN 2979 bisulphate consumed was about 230 mg/kg. The results are shown in Table 1 below, in which the bisulphate is identified as “AGN 2979 BS”. […] In particular, the test rats lost or merely maintained their body weight. The weight gains after an initial 3 day period for the two control rats and for test rats 3 and 6 are shown graphically in FIG. 1 and the weight gains for all 6 rats after an initial 4 day period are shown in FIG. 2.

[4] = system: subject; experiment: Single subject with obstructive sleep apnoea, oral maintenance treatment; format: in vivo, human
Experimental: A subject, height 178 cm and weighing 90 kilograms having had persistent awakening episodes of obstructive sleep apnoea (manifested by nocturnal choking) had been treated for several years with AGN 2979 hydrochloride, initially at a daily oral dose level of 120 mg and subsequently at a single oral maintenance dose of 120 mg every 4 days. […] The patient also reports that previous regular bouts of seasickness have been not recurred since treatment with AGN 2979 bisulphate.

[5] = system: tryptophan hydroxylase; settings: no method or data given; cited from earlier work
[6] = cited from earlier work
[7] = system: human patients; settings: cited from earlier work; for treatment of anxiety and depression: about 4 mg/kg/day (200–400 mg/day for human patients)
[8] = system: Male Wistar rats; settings: earlier studies, cited from earlier work
[9] = stressed animals, 4 mg/kg p.o. daily
[10] = single oral maintenance dose of 65 mg every two days, one subject
[11] = stressed animals, imipramine 10 mg/kg i.p. daily

SMILES: COc1cccc(C2(CCCN(C)C)C(=O)NC(=O)CC2(C)C)c1 (stereo not shown) [AGN 2979 bisulphate, 3(3-methoxyphenyl)-3-(3-dimethylaminopropyl)-4,4-dimethyl-piperidine-2,6-dione bisulphate]
- consumption of sucrose solution one week after withdrawal from treatment [1]: comparable to that observed in Week 5 of treatment
- consumption of sucrose solution in control animals ([1]; any of three doses 1, 4 and 16 mg/kg p.o. daily): not changed
- activity against stress-induced deficit in sucrose consumption ([1]; stressed animals, 1 mg/kg p.o. daily): ineffective
- activity against stress-induced deficit in sucrose consumption [1, 9]: active
- onset of significant increase of sucrose intake [1, 9]: within the first week of treatment
- sucrose solution drunk at end of treatment (Week 5) versus vehicle-treated controls [1, 9]: comparable to that of vehicle-treated controls
- activity against stress-induced deficit in sucrose consumption ([1]; stressed animals, 16 mg/kg p.o. daily): ineffective
- sucrose intake in stressed animals (treatment effect) ([1]; stressed animals, 1, 4 and 16 mg/kg p.o. daily, overall): gradual increase of sucrose intake
- behavioural impairments ([2]; 16 mg/kg p.o., control and stressed animals, disappeared at end of third week): sedation, hypoactivity (but not catalepsy) and hyporeactivity to handling and drug injections
- effect of chronic treatment on body weights ([2]; control and stressed animals): no significant effect on body weights
- signs of withdrawal after cessation of treatment [2]: no signs of withdrawal were observed
- weight gain of test rats versus control rats [3]: the same as that of the control rats
- nocturnal choking after suspension of administration ([4]; administration suspended, one subject): returned after three weeks
- bouts of seasickness ([4]; patient report, since treatment): not recurred
- awakening episodes of obstructive sleep apnoea [4, 10]: continued absence of awakening episodes
- side effects [4, 10]: no side effects
- activation of tryptophan hydroxylase by metabolic inhibitors (guanidine, sodium cyanide) [5]: blocked

SMILES: COc1cccc(C2(CCCN(C)C)C(=O)NC(=O)CC2(C)C)c1 (stereo not shown) [AGN 2979 hydrochloride, 3(3-methoxyphenyl)-3-(3-dimethylaminopropyl)-4,4-dimethylpiperidine-2,6-dione]
- post-mortem examination finding ([6]; 200 mg/kg/day p.o., rats, 1 year, not detected by routine transaminase determinations): hepatocyte changes
- weight loss ([6]; 200 mg/kg/day p.o., rats, over the 1-year period): 40%
- weight of test rats compared with control rats ([6]; 200 mg/kg, previous experiments): continuing weight disparity (loss)
- anxiolytic properties at FDA permitted dose ([7]; 1 mg b.i.d. (about 30 μg/kg/day), clinical study by Cutler et al): only marginally effective anxiolytic properties
- treatment of anxiety and depression [7]: effective in alleviating depression
- treatment of anxiety and depression ([7]; listed as hydrochloride salt of AGN 2979): effective
- adverse effects following discontinuation of chronic administration ([7]; previous clinical observations): does not cause any adverse effects following discontinuation

SMILES: CN(C)CCC=C1c2ccccc2CCc2ccccc21 [amitriptyline]
- efficacy against CMS-induced anhedonia when doses increased above threshold active ones [8]: not more effective

SMILES: O=C1CC2(CCCC2)CC(=O)N1CCCCN1CCN(c2ncccn2)CC1 [buspirone]
- efficacy against CMS-induced anhedonia when doses increased above threshold active ones [8]: not more effective

SMILES: CN(C)CCCN1c2ccccc2CCc2ccccc21 [imipramine]
- consumption of sucrose solution one week after withdrawal from treatment [1]: comparable to that observed in Week 5 of treatment
- consumption of sucrose solution in control animals ([1]; imipramine 10 mg/kg i.p. daily): not changed
- onset of significant increase of sucrose intake [1, 11]: after three weeks of treatment
- sucrose intake after five weeks of treatment versus vehicle-treated control animals [1, 11]: no significant differences between drug-treated stressed and vehicle-treated control animals
- sucrose intake in stressed animals (treatment effect) [1, 11]: gradual increase of sucrose intake
- effect of chronic treatment on body weights ([2]; control and stressed animals): no significant effect on body weights
- signs of withdrawal after cessation of treatment [2]: no signs of withdrawal were observed
- effects in CMS model at higher dose (magnitude and time-course) ([8]; imipramine 20 mg/kg per day): caused similar effects
